US6429204B1, “Method of inhibiting cancer growth” (University of Miami, priority 1997, dated 2002)
Read-outs that look alike come from different tables or passages of the source.

How the values were obtained:
C8161 cells [1] = assay: C8161 cell proliferation (doubling time); format: cell-based, human; details: 50 μg/mL; for Doubling Time: on plastic, DMSO 22 hr; for increase of doubling time: versus DMSO
Procedure: Cell Culture and Maintenance: C8161 cells, a human melanoma cell line, were maintained in Dulbecco's modified Eagle's medium (DMEM; […] These cells were routinely screened for Mycoplasma contamination using the GenProbe Rapid Detection System (Fisher Scientific; Chicago, Ill.). Chemically Modified Tetracyclines: Fresh stock solutions of the chemically modified tetracycline compounds (2 mg/mL) were prepared for each experiment by hydrating in 2% dimethyl sulfoxide (DMSO)/water pH 10, then adjusting to pH 7.4 using 1.0 M HCl. […] Sigma Chem. Co.; control) or 50 μg/mL of doxycycline or the other CMTs (three wells on each plate per compound). […] The doubling time for C8161 cells in the presence of each compound was then determined and compared to the DMSO treated cells (control).

Gelatinase A = biological target: T1, Gelatinase A (Homo sapiens, UniProt P08253); assay: Zymography with densitometry of C8161 conditioned medium, gelatinase A; format: cell-based; details: 50 μg/mL, 24 hr
T1 construct: endogenous in cells; host or cells: C8161
T1 sequence (P08253 110-660): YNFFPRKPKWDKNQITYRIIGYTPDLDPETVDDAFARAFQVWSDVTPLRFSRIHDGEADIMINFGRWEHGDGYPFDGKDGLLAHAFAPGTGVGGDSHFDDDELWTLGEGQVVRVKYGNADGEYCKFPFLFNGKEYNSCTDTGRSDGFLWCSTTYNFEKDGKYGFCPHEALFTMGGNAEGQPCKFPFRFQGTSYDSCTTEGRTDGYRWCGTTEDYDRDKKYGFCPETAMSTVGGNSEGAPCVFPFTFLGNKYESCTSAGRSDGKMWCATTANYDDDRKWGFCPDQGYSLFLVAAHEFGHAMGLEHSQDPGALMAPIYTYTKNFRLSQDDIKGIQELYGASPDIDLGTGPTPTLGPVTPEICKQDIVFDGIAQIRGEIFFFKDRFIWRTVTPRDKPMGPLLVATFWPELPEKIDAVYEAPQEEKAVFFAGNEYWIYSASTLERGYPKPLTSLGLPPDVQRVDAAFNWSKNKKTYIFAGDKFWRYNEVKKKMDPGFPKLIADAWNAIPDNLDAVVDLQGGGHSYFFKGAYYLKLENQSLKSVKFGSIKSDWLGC
Procedure: (§1) Six hundred thousand (6×10^5) C8161 cells were seeded per well in a 12-well dish coated with a laminin/collagen IV/gelatin matrix in DMEM plus Mito+ and 0.1% gentamicin sulfate. After approximately 1 hr incubation to allow the cells to attach, 50 μg/mL of either doxycycline or one of the other CMTs was added per well and the dish then placed in a 37° C. humidified 5% CO2 incubator. After 24 hr, the supernatants were removed and centrifuged to remove any cells or debris. One volume of Laemmli sample buffer minus reductant was added to two volumes of the medium, and this sample electrophoresed without prior heating or boiling on a 10% SDS-PAGE containing 0.1% gelatin (samples normalized based on the same number of cells per volume of medium per time of incubation). After electrophoresis, the gels were washed with gentle shaking at room temperature for 30 min in 50 mM Tris-HCl (pH 7.5) plus 2.5% TRITON® X100 plus 50 μg/mL of the corresponding CMT used in the original treatment. The gel was then placed in incubation buffer (50 mM Tris-Cl/10 mM CaCl2/150 mM NaCl/0.05% NaN3) also containing 50 μg/mL of the corresponding CMT, and incubated at 37° C. for 20-24 hr. The gels were stained with Coomassie BBR-250, then destained with 10% methanol/10% acetic acid in water until the wash remained clear. A photographic negative of the gel was digitized using a video camera and Snappy Video Snapshot system (Play Inc., Rancho Cordova, Calif.). An integrated density was determined for each of the cleared zones of proteolysis using the software ImagePC8α (freely available from the National Institutes of Health), and the corresponding changes in gelatinolytic activities reported compared to the control samples normalized to a value of 1.0.

Gelatinase B = biological target: T2, Gelatinase B (Homo sapiens, UniProt P14780); assay: Zymography with densitometry of C8161 conditioned medium, gelatinase B; format: cell-based; details: 50 μg/mL, 24 hr
T2 construct: endogenous in cells; host or cells: C8161
Procedure: as §1

[2] = tested on: C8161 human melanoma cells; assay: In vitro invasion assay (MICS), laminin/collagen IV/gelatin matrix-coated filter; format: cell-based; details: 3, 20 and 50 μg/mL; for Percent Inhibition of invasive potential: 48 hr
Procedure: The in vitro invasive potentials of the control (DMSO only) and chemically-modified tetracycline treated cells were measured using a modified Boyden chamber as previously described (Membrane Invasion Culture System, MICS). An intervening barrier consisting of a polycarbonate filter containing 10 μm pores (Osmonics, Livermore, Calif.) coated with a defined matrix of human laminin/collagen IV/gelatin (Sigma, St. Louis, Mo.) was used for these studies. […] Doxycycline or individual CMTs were then added to different wells of the chamber at 3, 20 or 50 μg/mL 2 hr post-seeding and daily during the assay. After 48 hr, the cells were removed from the lower wells and the number of invasive cells was determined and compared to the original number of cells seeded into the upper wells. Where appropriate, data were corrected for proliferation during the period of the in vitro assay.

C8161 cells [3] = assay: In vivo metastasis assay, C8161 cells i.v. in SCID mice; details: for Number of Lung Metastases/Mouse: Average ± SEM, control 231 ± 49
Procedure: Immunosuppressed mice (athymic nude/nude SCID females from Harlan Sprague Dawley) were housed in autoclaved cages with microisolator tops, and all manipulations of the animals were done in a laminar flow hood after wiping down both the hood, gloves and cages with ABQ sterilant. The mice were fed sterile Pico Lab Chow (Purina) and autoclaved St. Louis tap water. […] The compounds and control (sterile water plus 2% carboxymethyl cellulose) were kept stored at −80° C. wrapped in aluminum foil to prevent any light induced changes, and each day's supply was thawed just prior to use. Four compounds were tested for their effects on the metastatic potential of C8161 cells injected intravenously via the tail vein: […] The concentration of the compounds in the vials used to give the 100 mg/kg doses were 2.5 times that in the 40 mg/kg dose so that approximately the same volume was used in both cases, approximately 0.5 mL/animal. The experiments started with nine animals per group at day −4. On day zero, 2×10^5 C8161 cells in cold Hank's Balanced Salt Solution (HBSS) were injected intravenously via tail vein inoculation. The experiment was continued for an additional 24 days, at which time the animals were sacrificed and their lungs removed and fixed in a solution of Bouins/formaldehyde (5 parts:1 part). Tumors were quantitated on the entire surface of the lungs by rotating the lungs and counting the tumors on each lobe using a 6× magnifying glass. Statistical analysis was performed using the statistical package of Microsoft's Excel spreadsheet software.

E-10 Cells [4] = assay: MTS cytotoxicity assay, E-10; details: two days
COLO 205 Cells [5] = assay: MTS cytotoxicity assay, COLO 205; details: two days
Procedure: (§2) A panel of chemically modified tetracycline compounds and doxycycline were tested for cytotoxicity against two carcinomas: COLO 205 (a human colon carcinoma-derived cell line) and the E-10 clone of MDA-MB-231 (a human breast carcinoma-derived cell line). Cytoxicity was measured using a conventional assay for viability with a tetrazolium salt (MTS). Cells were grown in media containing the CMTs at concentrations ranging from 5 μM to 100 μM for two days. The cells were then incubated with the MTS for several hours before removal of the supernatant medium for determination of formazan, which is generated only by the viable cells. Results are expressed as percent cytotoxicity, which is simply the percent decline in measured formazan concentration in the sampled medium.

COLO 205 Cells [6] = tested on: COLO 205 Cells
Procedure: as §2

E-10 Cells [7] = tested on: E-10 Cells
TSU-PR1 cells = assay: Matrigel invasion assay (Boyden chamber, MTT), TSU-PR1; format: cell-based, human; details: TSU-PR1, 48 hr
Procedure: In this method, 4×10^5 tumor cells were plated on the top chamber of the Boyden chemotaxis assay chambers (Costar Transwell plates). The bottom side of the chamber was a 12 μm-pore polycarbonate filter layered with 0.5 mm thick layer of Matrigel. The bottom well contained a chemoattractant, a serum-free culture-conditioned medium from FHS 733 cells, a line of human fetal lung fibroblasts (ATCC No. HTB-157). Cancer cells (4×10^5) were plated in the top wells of the plates. Doxycycline or CMTs were diluted in a serum-free medium to 5 μg/mL, and were added to both top and bottom chambers. […] After 48 hr incubation, MTT was added to both the top and bottom wells (0.5 mg/mL), and incubation was continued for 4 hr. Wells were then emptied, and the cells from the undersides of the filter were pooled with those in the bottom wells with a filter tip. The reduced MTT (formazan) from top and bottom wells was solubilized with DMSO overnight, and absorbance (O.D.) at 515 nm was measured. The ratio of the O.D. from the bottom wells to that of the total (i.e., O.D. of top plus bottom wells) was taken as the invasive potential. […] The MTT assay procedure also normalizes the coincident inhibition due to the cytotoxic effects of the agents under investigation. Results presented are from three independent experiments.

[8] = tested on: DU-145 and TSU-PR1 prostate cancer cell lines; assay: Prostate cancer cell viability/proliferation (trypan blue, MTT); format: cell-based, human
Text: To determine the cytotoxicity of CMTs on prostate tumor cell lines, TSU-PR1 cells (and cells of other tumor cell lines) were exposed to various CMTs or to doxycycline for 24 hr or 48 hr in a complete medium. Cell viability (percent of live cells) was estimated by counting the cells following trypan blue staining. Cellular viability was also estimated by the tetrazolium dye reduction assay (MTT assay) (Lokeshwar et al. 1995b). Due to the aggressive proliferative capacity of cancer cells, it is assumed that viable cells are actively proliferating. Therefore, the measurement of viability was used as an estimate of proliferation. Results are expressed as Mean±SEM from three separate experiments.

T2 sequence (P14780 94-707): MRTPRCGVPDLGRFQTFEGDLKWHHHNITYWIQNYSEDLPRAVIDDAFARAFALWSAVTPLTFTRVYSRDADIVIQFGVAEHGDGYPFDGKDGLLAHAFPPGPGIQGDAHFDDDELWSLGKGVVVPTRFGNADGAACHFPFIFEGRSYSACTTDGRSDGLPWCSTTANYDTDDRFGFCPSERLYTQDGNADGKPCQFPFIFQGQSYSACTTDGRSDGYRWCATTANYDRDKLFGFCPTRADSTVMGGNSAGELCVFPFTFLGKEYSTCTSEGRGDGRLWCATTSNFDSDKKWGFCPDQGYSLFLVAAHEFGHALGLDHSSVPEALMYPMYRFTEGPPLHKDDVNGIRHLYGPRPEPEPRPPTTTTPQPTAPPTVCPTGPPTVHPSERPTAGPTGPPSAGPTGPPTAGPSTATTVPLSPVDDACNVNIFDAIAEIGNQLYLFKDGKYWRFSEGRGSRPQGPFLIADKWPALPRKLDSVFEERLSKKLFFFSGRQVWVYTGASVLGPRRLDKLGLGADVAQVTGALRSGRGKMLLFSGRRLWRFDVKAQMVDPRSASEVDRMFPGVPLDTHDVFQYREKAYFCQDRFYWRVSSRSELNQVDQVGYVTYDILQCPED

Row | Molecule | Doubling Time (C8161 cells [1]) [h] | increase of doubling time (C8161 cells [1]) | Gelatinase A, integrated density normalized to control 1.00 (Gelatinase A) | Gelatinase B, integrated density normalized to control 1.00 (Gelatinase B) | Type of Inhibition [2] | Percent Inhibition of invasive potential [2] | Number of Lung Metastases/Mouse (C8161 cells [3]; 40 mg/kg daily intragastric) | Number of Lung Metastases/Mouse (C8161 cells [3]; 100 mg/kg daily intragastric) | percent cytotoxicity (E-10 Cells [4]; 5 μM) [%] | percent cytotoxicity (E-10 Cells [4]; 10 μM) [%] | percent cytotoxicity (E-10 Cells [4]; 20 μM) [%] | percent cytotoxicity (E-10 Cells [4]; 50 μM) [%] | percent cytotoxicity (E-10 Cells [4]; 100 μM) [%] | percent cytotoxicity (COLO 205 Cells [5]; 5 μM) [%] | percent cytotoxicity (COLO 205 Cells [5]; 10 μM) [%] | percent cytotoxicity (COLO 205 Cells [5]; 20 μM) [%] | percent cytotoxicity (COLO 205 Cells [5]; 50 μM) [%] | percent cytotoxicity (COLO 205 Cells [5]; 100 μM) [%] | effect on number of lung metastases (significance) (C8161 cells [3]; at either dosage, p>0.05) | also measured
1 | CC1(O)c2cccc(O)c2C(=O)C2=C(O)C3(O)C(=O)C(C(N)=O)=C(O)CC3CC21 (stereo not drawn) [CMT-1, 4-de(dimethylamino)tetracycline] | 24 | approximately 9% | 0.24 | 0.22 | dose-dependent | 26-58% | 129 ± 102 | 240 ± 28 | 7.6 | 0 | 0 | 2.2 | 7.6 | 0 | 4 | 32.5 | 63.8 | 82.8 | – | effect on number of lung metastases (significance) (C8161 cells [3]; 40 mg/kg daily, p<0.05): significantly reduced the number of lung metastases; effect on number of lung metastases (significance) (C8161 cells [3]; 100 mg/kg): did not significantly reduce the number of lung metastases
2 | CC1(O)c2c(Cl)ccc(O)c2C(=O)C2=C(O)C3(O)C(=O)C(C(N)=O)=C(O)CC3CC21 (stereo not drawn) [CMT-4, 4-de(dimethylamino)-7-chlorotetracycline] | 22 | did not affect the doubling time | 0.75 | 0.12 | non-dose | ˜20% | – | – | – | – | – | – | – | – | – | – | – | – | – | percent cytotoxicity (COLO 205 Cells [6]; 5 µM): 1.8%; percent cytotoxicity (COLO 205 Cells [6]; 10 µM): 6.8%; percent cytotoxicity (COLO 205 Cells [6]; 20 μM): 25.3%; percent cytotoxicity (COLO 205 Cells [6]; 50 µM): 73.3%; percent cytotoxicity (COLO 205 Cells [6]; 100 µM): 81.9%; percent cytotoxicity (E-10 Cells [7]; 5 µM): 9%; percent cytotoxicity (E-10 Cells [7]; 10 µM): 16.7%; percent cytotoxicity (E-10 Cells [7]; 20 μM): 0.8%; percent cytotoxicity (E-10 Cells [7]; 50 µM): 0%; percent cytotoxicity (E-10 Cells [7]; 100 µM): 0%
3 | CC1(O)c2cccc(O)c2C(=O)C2=C(O)C3C(=O)C(C(N)=O)=C(O)CC3CC21 (stereo not drawn) [CMT-7, 4-de(dimethylamino)-12α-deoxytetracycline] | 24 | approximately 9% | 0.17 | 1.22 | non | 15-55% | 136 ± 107 | 166 ± 101 | 0 | 0 | 0 | 0 | 8.3 | 0 | 0 | 0 | 0 | 29.4 | did not significantly reduce the number of lung metastases | 50% inhibitory dose (IC50), Matrigel invasion (TSU-PR1 cells): > 100 µg/mL
4 | C[C@H]1c2cccc(O)c2C(O)=C2C(=O)[C@]3(O)C(O)=C(C(N)=O)C(=O)C[C@@H]3[C@@H](O)[C@@H]21 [CMT-8, 6α-deoxy-5-hydroxy-4-de(dimethylamino)tetracycline] | 26 | approximately 18% | 0.70 | 1.05 | non-dose | ˜12% | 186 ± 60 | – | 0 | 0 | 0 | 0 | 0 | 0 | 20.5 | 35.5 | 44.4 | 50 | did not significantly reduce the number of lung metastases | –
5 | tetracycline pyrazole [CMT-5] | – | – | – | – | – | – | – | – | – | – | – | – | – | – | – | – | – | – | – | inhibition of cell proliferation [8]: not inhibitory
